Data published in PubChem BioAssay (NCI).
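Exposure lasted 48 hours, with cells grown in 96-well plates and compounds tested at five concentrations. Abbreviation: GI50, concentration required for 50% inhibition of growth. Definition used: TGI = concentration required for complete inhibition of growth.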 Where a SMILES comes first, the peptide text is derived from it. [ ]: non-standard residue; d: D form. Phe(4-Cl) = N[CH](Cc1ccc(Cl)cc1)C(=O)O

Experiments:
Experiment in all cases: growth of human tumour cells (NCI), 48 h
SK-MEL-28 melanoma = system: SK-MEL-28 melanoma
EKVX NSCLC = system: EKVX NSCLC
LOX IMVI melanoma = system: LOX IMVI melanoma
KM12 colon = system: KM12 colon
SNB-19 CNS = system: SNB-19 CNS
NCI-H226 lung = system: NCI-H226 lung
M14 melanoma = system: M14 melanoma
SF-295 CNS = system: SF-295 CNS
NCI-H460 lung = system: NCI-H460 lung
BT-549 breast = system: BT-549 breast

| SMILES | TGI (SK-MEL-28 melanoma) [µM] | TGI (EKVX NSCLC) [µM] | TGI (LOX IMVI melanoma) [µM] | TGI (KM12 colon) [µM] | TGI (SNB-19 CNS) [µM] | TGI (NCI-H226 lung) [µM] | TGI (M14 melanoma) [µM] | TGI (SF-295 CNS) [µM] | TGI (NCI-H460 lung) [µM] | GI50 (SK-MEL-28 melanoma) [µM] | GI50 (EKVX NSCLC) [µM] | GI50 (LOX IMVI melanoma) [µM] | GI50 (KM12 colon) [µM] | GI50 (SNB-19 CNS) [µM] | GI50 (M14 melanoma) [µM] | GI50 (BT-549 breast) [µM] | TGI (BT-549 breast) [µM] | GI50 (SF-295 CNS) [µM] | GI50 (NCI-H460 lung) [µM] | GI50 (NCI-H226 lung) [µM] |
| --- | --- | --- | --- | --- | --- | --- | --- | --- | --- | --- | --- | --- | --- | --- | --- | --- | --- | --- | --- | --- |
| Cc1ccc2nc3c(C(=O)NCCN(C)C)cccc3nc2c1 | 10.9 | 24.2 | 5.19 | 20.2 | 46.3 | 10.4 | > 33.7 | > 27.1 |  |  |  |  |  |  |  |  |  |  |  |  |
| CC1(n2nc(-c3ccccc3)n(-c3ccccc3)c2=O)CSC1 | > 100 | > 100 | > 100 | > 100 | > 100 | > 100 | > 100 | > 100 | > 100 |  |  |  |  |  |  |  |  |  |  |  |
| CC/C=C\C[C@@H]1C/C=C2/C(=O)C=C[C@H]2C/C=C\CCCC(=O)O1 | 1.85 | 2.44 | 0.323 | 0.767 | 3.36 |  | 1.03 | 2.73 | 7.45 | 0.424 | 1.1 | 0.145 | 0.262 | 1.25 | 0.237 | 0.89 | 2.23 | 1.18 | 2.67 |  |
| Cn1cc(C(=O)c2ccccc2)ccc1=O | > 100 | > 100 | > 100 | > 100 | > 100 | > 100 | > 100 | > 100 | > 100 |  |  |  |  |  |  |  |  |  |  |  |
| Cc1noc(C)c1CCCOC1COc2ccccc2OCCOCCOc2ccccc2OC1 | > 100 | > 100 | > 100 | > 100 | > 100 | > 100 | > 100 | > 100 |  |  |  |  |  |  |  |  |  |  |  |  |
| CC(=O)[CH-]C(=O)c1ccccc1.CC(=O)[CH-]C(=O)c1ccccc1.O=C([O-])c1ccc([O-])cc1.O=C([O-])c1ccc([O-])cc1.[Ti+4] | > 100 | 79.6 | > 100 | 90.1 | > 100 | > 100 | > 100 | > 100 | > 100 | 41.6 | 23.9 | 28.9 | 25 | 52.3 | 40.2 |  |  | 41.6 | 44.2 | 37.3 |
| CC(C)(C)OC(=O)Cc1ccc2c(ccn2Cc2ccccc2)c1 | > 100 | > 100 | > 100 | > 100 | > 100 | > 100 | > 100 | > 100 | > 100 |  |  |  |  |  |  |  |  |  |  |  |
| Nc1ccc(/C=C/c2ccnc3ccccc23)cc1 | > 100 |  |  | 49.3 | 79.3 | 47.7 | 51.5 | 46.1 | 49.1 |  |  |  |  |  |  |  |  |  |  |  |
| Nc1ncc(-c2cnn(CCO)c2)c2scc(-c3ccc(NC(=O)Nc4cccc(F)c4)cc3)c12 | 3.56 |  |  | 1.19 | 9.16 | 5.15 | 3.31 | 0.762 | 4.21 | 0.465 |  |  | 0.0103 | 1.04 | 0.193 | 0.618 | 3.76 | < 0.0373 | < 0.0355 | 0.162 |
| NC(CC(=O)OCc1ccccc1)C(=O)OCc1ccccc1 (configuration not stated) | > 100 | > 100 | > 100 | > 100 | > 100 |  | > 100 | > 100 | > 100 |  |  |  |  |  |  |  |  |  |  |  |
| CCCCCCCCCCCCCC1CCC(CC)N1 (configuration not stated) | 18.6 | 31.4 | 32 | 32.4 | 30.7 | 30.2 | 31.8 | 32.6 | 18.5 |  |  |  |  |  |  |  |  |  |  |  |
| N.N.N.N.N.O=C([O-])c1nn[n-]n1.[Cl-].[Co+3] | > 100 | > 100 | > 100 | > 100 | > 100 | > 100 | > 100 | > 100 | > 100 | > 100 | > 100 | > 100 | > 100 | > 100 | > 100 |  |  | > 100 | > 100 | > 100 |
| CN(C)P(=O)(/C(N)=N/Nc1ccc([N+](=O)[O-])cc1)N(C)C | > 100 | > 100 | > 100 | > 100 | > 100 | > 100 | > 100 |  | > 100 |  |  |  |  |  |  |  |  |  |  |  |
| CC(O)C(NC(=O)C(Cc1ccccc1)NC(=O)C(NC(=O)C(CCCCN)NC(=O)C(Cc1c[nH]c2ccccc12)NC(=O)C(Cc1ccc(O)cc1)NC(=O)C(Cc1ccc(Cl)cc1)NC(=O)C(N)Cc1ccccc1)C(C)O)C(N)=O (configuration not stated) (H-F[Phe(4-Cl)]YWKTFT-NH2; configuration not given here) | 41.8 | 32.2 |  | 33.5 | 34.1 |  | 47.1 | 21.3 | 32.5 |  |  |  |  |  |  |  |  |  |  |  |
| NC1=NN(c2ccccc2)C(=O)C1C(=O)CCC(=O)Nc1cccc(C(F)(F)F)c1 (configuration not stated) | > 100 | > 100 | > 100 | > 100 | > 100 | > 100 | > 100 | > 100 | > 100 |  |  |  |  |  |  |  |  |  |  |  |
| Cc1ccccc1N(CCC#N)C1=NN(C(=O)CC(=O)Nc2ccccc2)C(c2ccccc2)C1 (configuration not stated) | > 100 | > 100 |  | > 100 | > 100 | > 100 | > 100 | > 100 | > 100 |  |  |  |  |  |  |  |  |  |  |  |
| CC12CCCC(O)C1CCC1=CC3(CCC12)SCCS3 (configuration not stated) | > 10 |  | > 10 | > 10 | > 10 |  | > 10 | > 10 |  |  |  |  |  |  |  |  | > 10 |  |  |  |
| COC(=O)C1=NC(=S)NC(c2ccccc2)C1c1nc2ccccc2s1 (configuration not stated) | > 100 | > 100 |  | > 100 | > 100 | > 100 | > 100 | > 100 | > 100 |  |  |  |  |  |  |  |  |  |  |  |
| CCOC1=NC(=O)CC(c2ccccc2)S1 (configuration not stated) |  | > 100 | > 100 | > 100 | > 100 | > 100 | > 100 | > 100 | > 100 |  |  |  |  |  |  |  |  |  |  |  |
